Measured values from US20200352912A1, “ANTIMICROBIAL COMPOSITIONS AND METHODS OF USING THE SAME” (The Board Of Supervisors Of Louisiana State University And …, priority 2018, published 2020).

Tests used:
[1] = test system: S. aureus NRS383; assay: planktonic antimicrobial assay (OD600 growth); assay type: cell-based, Staphylococcus aureus; conditions: 100 μg/ml (inhibitor-specific concentrations b175), OD600 up to 24 h
Procedure: Effect of COX enzyme inhibitors or PGE2 EP receptor antagonists on microbial growth. The antimicrobial activity of selective COX enzyme inhibitor or PGE2 EP receptor antagonist on the growth of C. albicans DAY185 (A), S. aureus NRS383 (B) and MRSA and MSSA clinical isolates (C). Growth of C. albicans and S. aureus was monitored for up to 24 h in medium alone or supplemented with DMSO or EP receptor antagonists or COX enzyme inhibitor at physiologically relevant concentrations. Data shown are representative of three independent experiments.
C. albicans and S. aureus were grown as described above. […] Cells were grown with shaking as described above, and 1 ml aliquots were removed each hour in duplicate and optical density at 600 nm measured (OD600) by spectrophotometer (Biomate 3S, Thermo Scientific).

[2] = test system: E. faecium; assay: spectrum of activity, bacterial growth; assay type: cell-based; conditions: 50 μg/ml, 6 h
Procedure: (§1) Bacterial growth was monitored for 6 h in medium alone or supplemented with 50 μg/ml of L-161, 982. Data shown is representative of three independent experiments.
(§2) Strains and growth conditions. The methicillin-resistant S. aureus strain NRS383 used in all experiments was obtained from the Network on Antimicrobial Resistance in S. aureus (NARSA) data bank. NRS383 is positive for the toxic shock syndrome toxin (tst) and 6-toxin genes. SJ-MRSA 6 and SJ-SA5 are methicillin-resistant (MRSA) and methicillin-sensitive (MSSA) clinical S. aureus strains respectively isolated from a patient's catheter. Other bacterial species used in this study include Escherichia coli (ATCC 25922, clinical isolate), S. epidermidis (ATCC 12228), Klebsiella pneumonia (ATCC 43816), Enterococcus faecalis (ATCC 51299, clinical isolate), and Streptococcus mutans (UA159, 12). S. mutans strain was maintained in brain heart infusion (BHI) broth while the other bacterial species were maintained in Luria-Bertani broth. Frozen stocks were obtained at −80° C. and streaked onto agar plates at 37° C. prior to use. A single colony was transferred to 10 ml of culture broth and shaken at 37° C. overnight. On the following day, the overnight culture was diluted 1:100 in fresh growth medium and shaken at 37° C. for 3 h to obtain cells in mid-log growth phase. S. mutans cultures were grown without agitation in the presence of 5% CO2.
(§3) The spectrum of activity of L-161, 982 was investigated by testing several Gram-positive and Gram-negative bacteria.

[3] = test system: K. pneumoniae; assay: spectrum of activity, bacterial growth; assay type: cell-based; conditions: 50 μg/ml, 6 h
Procedure: as §1, §2, §3

[4] = test system: S. epidermidis; assay: spectrum of activity, bacterial growth; assay type: cell-based; conditions: 50 μg/ml, 6 h
Procedure: as §1, §2, §3

[5] = test system: Streptococcus mutans; assay: spectrum of activity, bacterial growth; assay type: cell-based; conditions: 50 μg/ml, 6 h
Procedure: as §1, §2, §3

[6] = test system: S. aureus strain 43300; assay: staphyloxanthin assay; assay type: cell-based, Staphylococcus aureus
Procedure: Pigment (staphyloxanthin) levels were measured from cultures grown in Mueller-Hinton broth+/−L-161, 982 at 37° C. for 24 h. A) Macroscopic analysis of S. aureus pigment production. B) Pigment was extracted in methanol and optical density measured at 450 nm. Data shown are representative of two independent experiments. *** p<0.001 control vs. drug-treated.
Strains and growth conditions. The methicillin-resistant S. aureus strain NRS383 was obtained from the Network on Antimicrobial Resistance in S. aureus (NARSA) data bank. As NRS383 has little or no hemolytic activity or pigmentation, S. aureus strain 43300 (ATCC) was used for the hemolysis and staphyloxanthin assays. Frozen stocks were obtained at −80° C. and streaked onto trypticase soy agar (TSA) plates at 37° C. prior to use. A single colony was transferred to 10 ml of trypticase soy broth (TSB) and shaken at 37° C. overnight. On the following day, the overnight culture was diluted 1:100 in fresh growth medium and shaken at 37° C. for 3 h to obtain cells in mid-log growth phase.
Staphyloxanthin Assay. S. aureus was diluted 100-fold in 50 ml of TSB containing 50 or 100 μg/ml of L-161,982 and cultured shaking at 37° C. for 48 h. Control cultures were grown in broth alone. […] Cells from each culture were counted and normalized. […] Optical densities of supernatants were measured at 465 nm using a spectrophotometer.

[7] = target: EP3 (Homo sapiens, UniProt P43115); conditions: cited from earlier work
[8] = target: IP (Homo sapiens, UniProt P43119); conditions: cited from earlier work
[9] = test system: PGE2-stimulated bone formation; conditions: 10 mg/kg/day, young rats; cited from earlier work
[10] = test system: LPS-activated human macrophages; conditions: 100 nM; cited from earlier work
[11] = test system: HCA-7 colon cancer cells; conditions: 10 μM; cited from earlier work
[12] = 10 mg/kg body weight; cited from earlier work

IP, sequence (P43119 whole entry): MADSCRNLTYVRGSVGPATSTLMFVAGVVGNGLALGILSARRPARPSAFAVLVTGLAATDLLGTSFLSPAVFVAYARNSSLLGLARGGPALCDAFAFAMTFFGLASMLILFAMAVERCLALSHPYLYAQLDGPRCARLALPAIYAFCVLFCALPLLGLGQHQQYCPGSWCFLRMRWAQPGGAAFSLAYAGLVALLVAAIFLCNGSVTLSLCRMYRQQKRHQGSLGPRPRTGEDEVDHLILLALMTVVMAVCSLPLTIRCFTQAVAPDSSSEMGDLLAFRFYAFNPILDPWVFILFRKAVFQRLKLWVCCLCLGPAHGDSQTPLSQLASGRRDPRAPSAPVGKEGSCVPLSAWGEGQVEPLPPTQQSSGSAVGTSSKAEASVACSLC
EP3, sequence (P43115 whole entry): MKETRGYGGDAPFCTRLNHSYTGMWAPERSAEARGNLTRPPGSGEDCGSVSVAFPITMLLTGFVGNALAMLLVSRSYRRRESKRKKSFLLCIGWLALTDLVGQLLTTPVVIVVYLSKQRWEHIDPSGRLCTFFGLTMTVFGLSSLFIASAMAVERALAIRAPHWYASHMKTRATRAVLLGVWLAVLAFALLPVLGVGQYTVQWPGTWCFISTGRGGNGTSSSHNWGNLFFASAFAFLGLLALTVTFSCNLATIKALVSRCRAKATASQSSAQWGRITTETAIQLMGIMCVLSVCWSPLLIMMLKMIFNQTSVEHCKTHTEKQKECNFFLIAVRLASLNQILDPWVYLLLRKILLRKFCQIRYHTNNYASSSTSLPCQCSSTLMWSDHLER

## CCCCc1nn(-c2ccccc2C(F)(F)F)c(=O)n1Cc1ccc(-c2ccccc2S(=O)(=O)NC(=O)c2sccc2C)cc1 [L-161, 982, N-[[4′-[[3-Butyl-1,5-dihydro-5-oxo-1-[2-(trifluoromethyl)phenyl]-4H-1,2,4-triazol-4-yl]methyl][1,1′-biphenyl]-2-yl]sulfonyl]-3-methyl-2-thiophenecarboxamide]
[1]
  growth of S. aureus: significant inhibitory effect
[2]
  growth inhibitory activity: No inhibitory effects
[3]
  growth inhibitory activity: No inhibitory effects
[4]
  growth inhibitory activity: restricted to Gram-positive bacteria that included S. epidermidis and Streptococcus mutans
[5]
  growth inhibitory activity: restricted to Gram-positive bacteria that included S. epidermidis and Streptococcus mutans
[6]
  pigmentation (staphyloxanthin): loss of yellow pigmentation
[7]
  Ki: 1.9 µM
[8]
  Ki: 6.7 µM
[9]
  effect on PGE2-stimulated bone formation: suppresses
[10]
  effect on anti-inflammatory action of PGE2: reverses the anti-inflammatory action of PGE2
[11]
  effect on PGE2-induced cell proliferation: blocks PGE2-induced cell proliferation
[12]
  toxic effects: no apparent toxic effects
